{"source": "paper PMC3097170", "about": "(The Journal of pharmacology and experimental therapeutics, 2011)", "key": {"DOR/MOR heteromers": {"target": "DOR/MOR heteromers (Mus musculus, UniProt P32300+P42866)", "sequence (P42866 whole entry)": "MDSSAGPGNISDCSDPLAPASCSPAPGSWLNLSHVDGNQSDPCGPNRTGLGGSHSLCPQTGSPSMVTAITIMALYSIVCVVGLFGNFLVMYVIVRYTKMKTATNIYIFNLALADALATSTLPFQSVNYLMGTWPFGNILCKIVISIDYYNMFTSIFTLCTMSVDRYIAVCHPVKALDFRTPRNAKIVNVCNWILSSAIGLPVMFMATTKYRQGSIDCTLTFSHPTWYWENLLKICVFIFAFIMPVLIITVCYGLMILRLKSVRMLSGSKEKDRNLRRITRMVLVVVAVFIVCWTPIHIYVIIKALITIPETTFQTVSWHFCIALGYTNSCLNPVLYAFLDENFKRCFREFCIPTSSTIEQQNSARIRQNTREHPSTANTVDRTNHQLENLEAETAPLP", "sequence (P32300 whole entry)": "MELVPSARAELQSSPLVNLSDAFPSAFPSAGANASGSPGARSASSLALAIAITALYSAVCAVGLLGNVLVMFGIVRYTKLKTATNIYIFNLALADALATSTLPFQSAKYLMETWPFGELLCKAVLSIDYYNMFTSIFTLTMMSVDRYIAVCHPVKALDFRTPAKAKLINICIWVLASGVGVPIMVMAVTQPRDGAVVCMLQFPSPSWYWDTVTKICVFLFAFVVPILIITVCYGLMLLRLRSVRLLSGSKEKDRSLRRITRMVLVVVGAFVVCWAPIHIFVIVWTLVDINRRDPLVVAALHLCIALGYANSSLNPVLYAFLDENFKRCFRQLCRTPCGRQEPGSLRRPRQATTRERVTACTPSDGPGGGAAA", "assay_type": "cell-based, murine"}, "DOR [1]": {"target": "T1, DOR (Mus musculus, UniProt P32300)", "T1 sequence (P32300 whole entry)": "as above"}, "DOR/MOR [2]": {"target": "T2, DOR/MOR (Mus musculus, UniProt P32300+P42866)", "T2 sequence (P42866 whole entry)": "as the sequence (P42866 whole entry) above", "T2 sequence (P32300 whole entry)": "as the sequence (P32300 whole entry) above"}, "DOR [3]": {"target": "DOR", "settings": "cited from earlier work"}, "MOR [4]": {"target": "MOR", "settings": "cited from earlier work"}, "DOR [5]": {"target": "T1, DOR", "assay": "cell-based", "settings": "Log IC50"}, "DOR/MOR [6]": {"target": "T2, DOR/MOR", "assay": "cell-based"}, "MOR homomers": {"target": "MOR homomers (Mus musculus, UniProt P42866)", "sequence (P42866 whole entry)": "as the sequence (P42866 whole entry) above", "assay_type": "cell-based, murine", "settings": "DOR/MOR co-expressing cells"}, "DOR homomers": {"target": "DOR homomers (Mus musculus, UniProt P32300)", "sequence (P32300 whole entry)": "as the sequence (P32300 whole entry) above", "assay_type": "cell-based, murine"}, "MOR [7]": {"target": "T3, MOR (Mus musculus, UniProt P42866)", "T3 sequence (P42866 whole entry)": "as the sequence (P42866 whole entry) above"}, "MOR [8]": {"target": "T3, MOR", "remark": "listed apart in the source"}, "DOR [9]": {"target": "T1, DOR", "remark": "listed apart in the source"}}, "note": "Where “and” joins values, the source holds several entries; their conditions need not be identical. Equal values may be shown once. Where a name gives a salt, the structure may show the parent alone. Read-outs that look alike come from different tables or passages of the source."}
{"molecule": "Oc1ccc2c3c1O[C@H]1c4[nH]c5ccccc5c4C[C@@]4(O)[C@@H](C2)N(CC2CC2)CC[C@]314", "note": "[NTI, Naltrindole hydrochloride]", "values": [{"measurement": "inhibition of methadone- and DAMGO-induced endocytosis of DOR/MOR heteromers", "setting": "DOR/MOR heteromers", "value": "significantly and selectively inhibited"}, {"measurement": "% of maximal inhibition", "setting": "DOR [1]", "value": "81 ± 3% and 94 ± 1%"}, {"measurement": "% of maximal inhibition", "setting": "DOR/MOR [2]", "value": "79 ± 6% and 48 ± 6%"}, {"measurement": "Log IC50", "setting": "DOR/MOR [2]", "value": "−6.9 ± 0.1"}, {"measurement": "Ki", "setting": "DOR [3]; read-out: Ki for DOR, reference not given", "value": 0.02, "unit": "nM"}, {"measurement": "Ki", "setting": "MOR [4]; read-out: Ki for MOR, reference not given", "value": 64, "unit": "nM"}, {"measurement": "IC50", "setting": "DOR [5]", "value": "63.1 nM and 251 nM"}, {"measurement": "IC50", "setting": "DOR/MOR [6]", "value": 126, "unit": "nM"}]}
{"molecule": "C[C@@H](NC(=O)[C@@H](N)Cc1ccc(O)cc1)C(=O)NCC(=O)N(C)[C@@H](Cc1ccccc1)C(=O)NCCO", "note": "[DAMGO, [D-Ala2, NMe-Phe4, Gly-ol5]-enkephalin]", "values": [{"measurement": "agonist-induced endocytosis of DOR/MOR heteromers", "setting": "DOR/MOR heteromers", "value": "promoted endocytosis"}, {"measurement": "agonist-induced endocytosis of MOR homomers", "setting": "MOR homomers; 1 μM, 30 minutes", "value": "promoted endocytosis"}, {"measurement": "agonist-induced endocytosis of DOR homomers", "setting": "DOR homomers", "value": "but not DOR homomers"}, {"measurement": "Emax (RFU)", "setting": "DOR [1]", "value": "582 ± 55", "unit": "RFU"}, {"measurement": "Emax (RFU)", "setting": "MOR [7]", "value": "735 ± 51", "unit": "RFU"}, {"measurement": "Emax (RFU)", "setting": "DOR/MOR [2]", "value": "956 ± 56", "unit": "RFU"}, {"measurement": "agonist-induced endocytosis of MOR", "setting": "MOR [8]; 1 μM agonist, 30 minutes, cells expressing MOR alone", "value": "endocytosed"}, {"measurement": "agonist-induced endocytosis of DOR", "setting": "DOR [9]", "value": "not endocytosed"}]}
{"molecule": "Oc1ccc2c3c1O[C@H]1c4oc5ccccc5c4C[C@@]4(O)[C@@H](C2)N(CC2CC2)CC[C@]314", "note": "[NTB, naltriben mesylate]", "values": [{"measurement": "inhibition of methadone- and DAMGO-induced endocytosis of DOR/MOR heteromers", "setting": "DOR/MOR heteromers", "value": "significantly inhibited"}, {"measurement": "inhibition of methadone- and DAMGO-induced endocytosis of MOR homomers", "setting": "MOR homomers; NTB 0.05 μM to 1 μM, 20 minutes", "value": "inhibited by the highest concentration"}, {"measurement": "% of maximal inhibition", "setting": "DOR [1]", "value": "87 ± 2% and 87 ± 12%"}, {"measurement": "block of DPDPE signaling", "setting": "DOR [1]", "value": "effectively blocked signaling"}, {"measurement": "inhibition of DAMGO-mediated signaling", "setting": "MOR [7]", "value": "52 ± 4", "unit": "%"}, {"measurement": "inhibition of methadone-mediated signaling", "setting": "MOR [7]", "value": "63 ± 10", "unit": "%"}, {"measurement": "% of maximal inhibition", "setting": "DOR/MOR [2]", "value": "34 ±7 ^### % and 31 ± 5 %"}, {"measurement": "block of DPDPE signaling", "setting": "DOR/MOR [2]", "value": "effectively blocked signaling"}, {"measurement": "inhibition of MOR endocytosis in cells expressing only MOR", "setting": "MOR [8]", "value": "did not block endocytosis"}, {"measurement": "inhibition of DOR endocytosis in response to DPDPE", "setting": "DOR [9]", "value": "did block endocytosis"}, {"measurement": "fold higher affinity for DOR over MOR", "setting": "DOR [3]; DOR over MOR, ref Raynor et al., 1994, Kim et al., 2001", "value": "> 100", "unit": "fold"}, {"measurement": "Ki", "setting": "DOR [3]; read-out: Ki for DOR, ref Raynor et al., 1994, Kim et al., 2001", "value": 0.013, "unit": "nM"}, {"measurement": "Ki", "setting": "MOR [4]; read-out: Ki for MOR, ref Raynor et al., 1994, Kim et al., 2001", "value": 12, "unit": "nM"}, {"measurement": "IC50", "setting": "DOR [5]", "value": "158 nM and 126 nM"}, {"measurement": "IC50", "setting": "DOR/MOR [6]", "value": 251, "unit": "nM"}]}
